Test results taken from patent US10227356B2, “Compounds, compositions and methods for inhibiting CNKSR1” (Phusis Therapeutics, Inc., priority 2015, dated 2019).
pIC50, pKd: −log10 of the molar value. Read-outs that look alike come from different tables or passages of the source.

Columns and labels:
mut-KRas NSCLC lines [1] = assay: Proliferation assay 2D, mut-KRas NSCLC lines; assay type: cell-based; settings: for In vitro IC50 against mut-KRas NSCLC 2D ave: mean of 12 mut-KRas NSCLC lines; for pIC50: range across mut-Kras cell lines, read-out: In vitro IC50 against mut-KRas NSCLC 2D range
Description: A panel of 30 cell lines and an extensive characterization were obtained from Dr. John Minna (UTSW). All cell lines were cultured in RPMI 1640 with 10% FBS. Cells were treated with concentrations of agents at concentrations 0.01 to 50 μM and evaluated as described above. IC50's were determined using Excelfit.

mut-KRas NSCLC lines [2] = assay: Proliferation assay 3D, mut-KRas NSCLC lines; assay type: cell-based; settings: for In vitro IC50 against mut-KRas NSCLC 3D ave: mean of 6 mut-KRas NSCLC lines; for pIC50: range across mut-Kras cell lines, read-out: In vitro IC50 against mut-KRas NSCLC 3D range
Description: The plates were optimized for the best cell density and found to be 20,000 cells per mL. The lid was removed from a 96-well Greiner plate and turned upside down. 20 μL of the 20,000 cells per mL suspension was then added directly into the middle of the circles found on the lid of the 96-well plate forming a small drop. 100 μL of media was added into the corresponding wells, used to maintain the […] of the drops, and the lid was flipped back over carefully placing it back onto the plate without disturbing the drop. The plate was then placed into the incubator for 3 days to allow the cells to migrate to the bottom of the drop due to gravity. After 3 days, […] of media was added to the corresponding wells a SCIVAX 96-well plate. The lid from the Greiner 96-well plate was removed and placed onto the SCIVAX plate allowing the drop to come in contact with the media and placed back into the incubator. After one hour, 200 μL of media was removed from the corresponding wells carefully without disturbing the spheroid and imaged.

Pharmacokinetics (PK) = assay type: in vivo; design: AUC: concentration or dose not given beside the values; settings: for half-life: read-out: PK T1/2 (converted)
mut-KRAS cells = assay: Proliferation assay, mut-KRAS cell lines; assay type: cell-based; settings: read-out: Ave IC50 mut-KRAS
Description: (§1) These cells were cultured in McCoys media with 10% FBS to 80% confluency. […] Cells were incubated for 72 hours with the drugs, and then viability was assessed using an MTS viability assay. Cells were exposed to MTS reagent (Promega) dissolved in PBS (Hyclone) at a concentration of 200 μL reagent/mL media for 2 hours. Absorbance was then read at 490 nm, and viability was expressed as a percentage normalized between the negative control (no cells plated) and the condition of cells with no drug added (100% viability) normalized as the upper limit of viability. A panel of 30 cell lines and an extensive characterization were obtained from Dr. John Minna (UTSW). All cell lines were cultured in RPMI 1640 with 10% FBS. […] IC50's were determined using Excelfit.

wt-KRAS cells = assay: Proliferation assay, wt-KRAS cell lines; assay type: cell-based; settings: read-out: Ave IC50 wt-KRAS
Description: as §1

PH-domain of CNKSR1 = target: T1, PH-domain of CNKSR1 (Homo sapiens, UniProt Q969H4); assay: Surface plasmon resonance binding to CNK PH-domain
T1 construct: The PH-domain His-fusion proteins (CNK1 and AKT1) were expressed and immobilized on a NTA chip; made in house
T1 sequence (Q969H4 403-502 limits assumed): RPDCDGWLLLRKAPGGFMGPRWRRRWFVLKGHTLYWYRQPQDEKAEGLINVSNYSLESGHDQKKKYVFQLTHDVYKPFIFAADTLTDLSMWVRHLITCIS
Text: The PH-domain His-fusion proteins (CNK1 and AKT1) were expressed and immobilized on a NTA chip to a level of 10,000 response units or less.
Additionally, ligand-based approaches provided an alternative to structure based drug discovery.

AKT1 PH-domain = target: T2, AKT1 PH-domain (Homo sapiens, UniProt P31749); assay: Surface plasmon resonance binding to AKT PH-domain; settings: SPR; ND = no binding determined
T2 construct: The PH-domain His-fusion proteins (CNK1 and AKT1) were expressed and immobilized on a NTA chip; made in house
T2 sequence (P31749 5-108 limits assumed): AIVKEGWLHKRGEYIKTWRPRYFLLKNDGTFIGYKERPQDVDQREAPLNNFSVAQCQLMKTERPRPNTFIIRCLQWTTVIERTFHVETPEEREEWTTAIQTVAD
Description: All interaction analyses were done with a Biacore T200 Control Software v3.2, and BIAevaluation v2.0 analysis software (Biacore). The PH-domain His-fusion proteins (CNK1 and AKT1) were expressed and immobilized on a NTA chip to a level of 10,000 response units or less. Small molecule analytes at concentrations ranging from 50 μM to 0.010 μM were injected at a high flow rate (30 μL/min). DMSO concentrations in all samples and running buffer were 1-5% (v/v) […]
A commercially available docking package GLIDE was chosen as the docking algorithm used to select and optimize compounds, providing a GlideScore as a rough estimate of binding affinity that was used to rank and select the best compounds. Additionally, ligand-based approaches provided an alternative to structure based drug discovery. Ligand-based virtual screening methodologies can take into account shape and electrostatics and the pharmacophoric features (acceptor, donor, hydrophobic, aromatic, etc.) of its functional groups. Inositol tetraphosphate (IP4) binding to the PH-domain of CNKSR1 provided a good starting point for shape screening. Both structure-based and ligand-based approaches were used to find novel compounds and to refine and improve lead compounds (Tables 2, 3 and 4). SPR interaction analyses for the compounds were performed with a Biacore T200, using BiacoreT200 Control Software v3.2 and BIAevaluation v2.0analysis software (Biacore).

CNK1 = target: T3, CNK1 (Homo sapiens, UniProt Q969H4); assay: SPR competition, CNK1 binding to PIP3; settings: read-out: SPR Competition Percent inhibition of CNK1 binding to PIP3 at 50 μM, X = none
T3 construct: The PH-domain His-fusion proteins (CNK1 and AKT1) were expressed and immobilized on a NTA chip; made in house
T3 sequence (Q969H4 403-502 limits assumed): T1 sequence (Q969H4 403-502 limits assumed)

[3] = Summary table for CNKSR1 inhibitors, read-out: SPR Kd

Row | Compound | In vitro IC50 against mut-KRas NSCLC 2D ave (mut-KRas NSCLC lines [1]) [µM] | pIC50 (mut-KRas NSCLC lines [1]) | pIC50 (mut-KRas NSCLC lines [2]) | half-life (Pharmacokinetics (PK); in vivo) [h] | pIC50 (mut-KRAS cells) | pIC50 (wt-KRAS cells) | AUC (Pharmacokinetics (PK); in vivo) [ng·h/mL] | further results
1 | CCOC(=O)/C=C/c1c(NS(=O)(=O)c2cccs2)cc2c(c1OC)OCO2 [Compound 151, ethyl 3-[4-methoxy-6-(thiophene-2-sulfonamido)-2H-1,3-benzodioxol-5-yl]prop-2-enoate] | 18 | 4.00 to 6.30 | 5.57 to 7.60 | 0.5 | – | – | – | In vitro IC50 against mut-KRas NSCLC 3D ave (mut-KRas NSCLC lines [2]): 0.69 µM; PK metabolism (remark in place of AUC) (Pharmacokinetics (PK); AUC NA): rapid
2 | COc1c(/C=C/C(=O)N2CCN(C)CC2)c(NS(=O)(=O)c2cccs2)cc2c1OCO2 [Compound 111] | 19.2 | 4.00 to 6.22 | 4.88 to 6.92 | 1 | 5.39 | 4.47 | 30000 | In vitro IC50 against mut-KRas NSCLC 3D ave (mut-KRas NSCLC lines [2]): 4.1 µM
3 | CCOC(=O)CCc1cc(NS(=O)(=O)c2cccs2)c2c(c1OC)OCO2 [Compound 85, ethyl 3-(4-methoxy-7-(thiophene-2-sulfonamido)benzo[d][1,3]dioxol-5-yl)propanoate] | – | – | – | – | – | – | – | pKd (PH-domain of CNKSR1; SPR, ND = no binding determined, read-out: CNK KD): < 3.30; pKd (AKT1 PH-domain): < 3.30
4 | COc1c(/C=C/C(=O)O)c(NS(=O)(=O)c2cccs2)cc2c1OCCO2 [Compound 114] | 57 | 4.00 to 4.92 | – | – | 4.07 | 4.00 | – | –
5 | COc1c(/C=C/C(N)=O)c(NS(=O)(=O)c2cccs2)cc2c1OCO2 [Compound 107] | 19.5 | 4.00 to 6.00 | 4.12 to 6.09 | 3.2 | 5.82 | 4.00 | 34500 | In vitro IC50 against mut-KRas NSCLC 3D ave (mut-KRas NSCLC lines [2]): 1.5 µM
6 | COc1c(/C=C/C(=O)NCc2ccco2)c(NS(=O)(=O)c2cccs2)cc2c1OCO2 [Compound 108] | 35 | 4.00 to 6.70 | – | 1 | 5.28 | 4.00 | 3410 | –
7 | COc1c(/C=C/CO)c(NS(=O)(=O)c2cccs2)cc2c1OCO2 [Compound 152, N-{6-[(1E)-3-hydroxyprop-1-en-1-yl]-7-methoxy-2H-1,3-benzodioxol-5-yl}thiophene-2-sulfonamide] | 20 | 4.00 to 7.00 | 6.59 to 7.82 | 3.1 | – | – | 7000 | –
8 | CCOC(=O)/C=C/c1c(NS(=O)(=O)c2cccs2)cc2c(c1OC)OCCO2 [Compound 113] | 25 | 4.00 to 4.86 | – | – | 4.26 | 4.00 | – | –
9 | COc1c(/C=C/C(=O)O)cc(NS(=O)(=O)c2cccs2)c2c1OCO2 [Compound 84, (E)-3-(4-methoxy-7-(thiophene-2-sulfonamido)benzo[d][1,3]dioxol-5-yl)acrylic acid] | – | – | – | – | – | – | – | AKT KD (AKT1 PH-domain): No binding
10 | COc1c(/C=C/CO)c(NS(=O)(=O)c2cccs2)cc2c1OCCO2 [Compound 115] | 11.2 | 4.00 to 5.80 | – | – | 4.41 | 4.00 | – | –
11 | COc1c(/C=C/C(=O)N2CCOCC2)c(NS(=O)(=O)c2cccs2)cc2c1OCO2 [Compound 109] | 18.9 | 4.00 to 7.00 | – | 0.75 | 5.19 | 4.00 | 1200 | –
12 | CN1CC(=O)N(/C=C/c2cc(NS(=O)(=O)c3cccs3)c3c(c2O)OCO3)C1=O [Compound 91, (E)-N-(7-hydroxy-6-(2-(3-methyl-2,5-dioxoimidazolidin-1-yl)vinyl)benzo[d][1,3]dioxol-4-yl)thiophene-2-sulfonamide] | 23 | 4.46 to 5.22 | – | 1 | – | – | – | pKd (PH-domain of CNKSR1; [3]): 4.44; Cmax (Pharmacokinetics (PK); in vivo, printed in the T1/2/AUC column): 2200 nM
13 | CCOC(=O)/C=C/c1cc(NS(=O)(=O)c2cccs2)c2c(c1OC)OCO2 [Compound 86, (E)-ethyl 3-(4-methoxy-7-(thiophene-2-sulfonamido)benzo[d][1,3]dioxol-5-yl)acrylate] | – | – | – | – | – | – | – | pKd (AKT1 PH-domain): < 3.30
14 | CCNC(=O)/C=C/c1c(NS(=O)(=O)c2cccs2)cc2c(c1OC)OCO2 [Compound 105] | 6.7 | 4.03 to 5.80 | – | – | 5.00 | 4.00 | – | –
15 | CNC(=O)/C=C/c1c(NS(=O)(=O)c2cccs2)cc2c(c1OC)OCO2 [Compound 106] | 16.3 | 4.00 to 6.10 | 4.12 to 7.02 | 1.7 | 5.08 | 4.17 | 7000 | In vitro IC50 against mut-KRas NSCLC 3D ave (mut-KRas NSCLC lines [2]): 8.4 µM
16 | CCOC(=O)/C=C/c1cc(NS(=O)(=O)c2cccs2)c2c(c1OC)OCCO2 [Compound 116] | – | – | – | – | – | – | – | pIC50 (mut-KRAS cells; average over mut-KRAS lines): 4.00
17 | COc1c(/C=C/C(=O)NC2CC2)c(NS(=O)(=O)c2cccs2)cc2c1OCO2 [Compound 110] | 15.7 | 4.00 to 5.37 | 4.12 to 6.64 | – | – | – | – | pKd (PH-domain of CNKSR1; [3]): > 4.30; inhibition at 50 µM (CNK1): 0%; pIC50 (mut-KRAS cells; average over mut-KRAS lines): 5.92; pIC50 (wt-KRAS cells; average over wt-KRAS lines): 4.45; In vitro IC50 against mut-KRas NSCLC 3D ave (mut-KRas NSCLC lines [2]): 1.2 µM
18 | COc1c(/C=C/C(=O)NCC(C)O)c(NS(=O)(=O)c2cccs2)cc2c1OCO2 (centres unmarked) [Compound 112] | 65 | 4.00 to 4.72 | – | – | 4.60 | 4.00 | – | –
19 | O=c1ccoc2c3c(cc(NS(=O)(=O)c4cccs4)c12)OCO3 [Compound 104] | – | – | – | – | – | – | – | inhibition at 50 µM (CNK1): 0%; pIC50 (mut-KRAS cells; average over mut-KRAS lines): 4.78; pIC50 (wt-KRAS cells; average over wt-KRAS lines): 4.00
20 | COc1c(/C=C2\SC(=S)NC2=O)c(NS(=O)(=O)c2cccs2)cc2c1OCO2 [Compound 103] | 25 | 4.22 to 5.29 | – | – | – | – | – | pIC50 (mut-KRAS cells; average over mut-KRAS lines): 4.83; pIC50 (wt-KRAS cells; average over wt-KRAS lines): 4.02
